In publication PMC4491819, “Specificity and catalysis hardwired at the RNA–protein interface in a translational proofreading enzyme” (Nature Communications, 2015):
Values belong to the molecule of their own block, whether it stands above or below them.

Assays:
PabNTD = biological target: T1, PabNTD (Pyrococcus abyssi, UniProt Q9UZ14, K121M); experiment: X-ray crystal structure; assay type: binding; details: editing (amino-acid/adenosine) pocket
T1 construct: gene thrS; N-terminal editing domain, residues 1-143 of ThrRS, untagged, expressed in E. coli, homodimer; all rows are K121M
T1 sequence (Q9UZ14 1-143 K121M): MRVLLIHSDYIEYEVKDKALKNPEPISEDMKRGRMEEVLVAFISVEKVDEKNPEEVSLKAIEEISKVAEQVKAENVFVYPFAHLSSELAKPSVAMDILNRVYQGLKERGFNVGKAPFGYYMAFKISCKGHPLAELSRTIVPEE

ApNTD [1] = biological target: T2, ApNTD (Aeropyrum pernix, UniProt Q9YFY3); experiment: ITC (also crystal structure); assay type: binding
T2 construct: gene thrS2; N-terminal editing domain, residues 1-136 of ThrRS-2, untagged, expressed in E. coli, homodimer
T2 sequence (Q9YFY3 1-136): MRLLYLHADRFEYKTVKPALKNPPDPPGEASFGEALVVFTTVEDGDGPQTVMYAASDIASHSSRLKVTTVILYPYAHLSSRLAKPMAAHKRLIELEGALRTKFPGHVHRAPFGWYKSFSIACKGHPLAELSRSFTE

ApNTD [2] = biological target: T3, ApNTD (Aeropyrum pernix, UniProt Q9YFY3, K116M); experiment: X-ray crystal structure; assay type: binding; details: editing (amino-acid/adenosine) pocket
T3 construct: gene thrS2; N-terminal editing domain, residues 1-136 of ThrRS-2, untagged, expressed in E. coli, homodimer
T3 sequence (Q9YFY3 1-136 K116M): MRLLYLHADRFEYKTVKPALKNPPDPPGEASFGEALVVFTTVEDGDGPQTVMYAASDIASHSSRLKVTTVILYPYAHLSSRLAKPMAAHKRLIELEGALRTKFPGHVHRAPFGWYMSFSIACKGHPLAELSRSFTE

ApNTD [3] = biological target: T4, ApNTD (Aeropyrum pernix, UniProt Q9YFY3, E129A); experiment: X-ray crystal structure; assay type: binding; details: editing (amino-acid/adenosine) pocket
T4 construct: gene thrS2; N-terminal editing domain, residues 1-136 of ThrRS-2, untagged, expressed in E. coli, homodimer
T4 sequence (Q9YFY3 1-136 E129A): as the sequence (Q9YFY3 1-136 K116M) above, with M116K, E129A counted along it

ApNTD [4] = biological target: T5, ApNTD (Aeropyrum pernix, UniProt Q9YFY3, Y115A); experiment: X-ray crystal structure; assay type: binding; details: editing (amino-acid/adenosine) pocket
T5 construct: gene thrS2; N-terminal editing domain, residues 1-136 of ThrRS-2, untagged, expressed in E. coli, homodimer
T5 sequence (Q9YFY3 1-136 Y115A): as the sequence (Q9YFY3 1-136 K116M) above, with Y115A, M116K counted along it

[5] = biological target: N-terminal editing domain (NTD) of threonyl-tRNA synthetase from Aeropyrum pernix (Aeropyrum pernix); experiment: crystal structure; co-crystals with the substrate analogues L-Ser3AA or L-Thr3AA, grown at 4 °C; ApNTD in P4(1)2(1)2 with one monomer in the asymmetric unit (dimer by the crystallographic twofold); MjNTD in C2 and P2(1) with six and four monomers in the asymmetric unit
[6] = biological target: the molecule itself; experiment: as above

Molecule: Nc1ncnc2c1ncn2[C@@H]1O[C@H](CO)[C@@H](NC(=O)[C@@H](N)CO)[C@H]1O [L-seryl-3′-aminoadenosine]
X-ray crystal structure (PabNTD): We solved the crystal structure of K121M mutant of PabNTD
Kd (ApNTD [1]): 1 ± 0.3 µM

B1: N-terminal editing domain (NTD) of threonyl-tRNA synthetase from Methanococcus jannaschii (domain or fragment, UniProt Q58597 5-143, looked up)
chain: LIHSDYLEFEAKEKTKIAEETENLKGKLDECLACFIAVEREDENNPEGTAIGAVEEIEKVANQLKVNNIVVYPYAHLSSDLSSPETAVKVLKDIESILKERGYNVLRAPFGWYKAFKISCKGHPLSELSRKIVAKEEKK
notes: N-terminal editing domain of ThrRS of Methanococcus jannaschii, residues 5-143; untagged construct (stop codon in the reverse primer); Crystallised with the substrate analogues L-Ser3AA or L-Thr3AA; also called MjNTD; MjNTD wild type
stoichiometry N [6]: 2

Now from value to molecule, other results behind:

Kd (ApNTD [1]): 13.4 ± 2.9 µM
Molecule: C[C@@H](O)[C@H](N)C(=O)N[C@H]1[C@@H](O)[C@H](n2cnc3c(N)ncnc32)O[C@@H]1CO [L-threonyl-3′-aminoadenosine]
X-ray crystal structure (PabNTD): We solved the crystal structure of K121M mutant of PabNTD
X-ray crystal structure (ApNTD [2]): K116M mutant of ApNTD with L-Ser3AA and L-Thr3AA
X-ray crystal structure (ApNTD [3]): E129A mutant also showed a loosening of interactions upon L-Thr3AA binding
X-ray crystal structure (ApNTD [4]): no such loosening was observed in the case of Y115A

stoichiometry N [5]: 2
Molecule: N-terminal editing domain (NTD) of threonyl-tRNA synthetase from Aeropyrum pernix (domain or fragment)
